We go through 61 compounds from PubChem BioAssay AID2127 (Sanford-Burnham Center for Chemical Genomics, 2009).

The structures appear in SMILES notation. Active and inactive are the calls of the source.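 The calls were made as follows: active = half-maximal inhibitory concentration below a set limit; inactive = the rest.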 A value given as a limit tells only on which side of the number the result lay.

The target of the experiment is E3 ubiquitin-protein ligase SIAH1 (Homo sapiens) (UniProt Q8IUQ4). The experiment is described as follows: displacement of labeled plectin from Siah-1 – biochemical, fluorescence polarization, fluorescein-plectin, artefact control for Siah-1 antagonist project, dose response (AID 2127). To be noted: Siah-1/fluorescein-plectin binding. (In general: In fluorescence polarisation assays a small probe gives low polarisation when free and higher when bound to something large.)
With `O=C(Cn1cnc2scc(-c3ccccc3)c2c1=O)NCc1ccco1`, the IC50 (in general, the concentration at which inhibition is half-maximal) is > 200 µM (inactive).
The same measure for `CC1=C(C#N)c2nc(N)c(C#N)c(C)c2/C1=C\c1ccc(-c2ccccc2C(=O)O)o1`: > 200 µM (inactive); for `O=C(O)c1cc(O)c2c(c1)C(=O)c1cccc(O)c1C2=O`: “inactive”.
In the case of `COc1ccc(N=C2NC(=O)S/C2=C\c2ccc(N(C)C)cc2)cc1` it was “inactive”.
The same measure for `CC1CCN(S(=O)(=O)c2nnc(NC(=O)c3cccc(Cl)c3)s2)CC1`: > 200 µM (inactive); for `CCCCn1c(NS(=O)(=O)c2ccccc2)c(C(=O)OCC)c2nc3ccccc3nc21`: > 200 µM (inactive).
Turning to `CCN(CC)c1ccc(/C=c2\sc3nnc(-c4ccccc4Cl)n3c2=O)cc1`, the IC50 is > 200 µM (inactive).
In the case of `Nc1ccc(O)c2c1C(=O)c1ccccc1C2=O` it was 5.75 µM; in that of `Cc1cc2cc(CNC(=O)c3ccc(S(=O)(=O)N4CCCCC4)cc3)ccc2n1C`, “inactive”; in that of `CC1=CC(C)(C)N2C(=O)C(=Nc3ccc(O)cc3)c3cccc1c32`, > 200 µM (inactive).
In the case of `CC(C)(C)c1cc(-c2csc(Nc3ccccc3)[n+]2Cc2ccc(C(=O)O)cc2)cc(C(C)(C)C)c1O` it was > 200 µM (inactive); in that of `NS(=O)(=O)c1ccc(NS(=O)(=O)c2ccc(NC(=O)c3ccc(-c4ccccc4)cc3)cc2)cc1`, > 200 µM (inactive); in that of `O=C(O)CCN1C(=O)/C(=C/c2cn(-c3ccccc3)nc2-c2cccs2)SC1=S`, > 200 µM (inactive).
In the case of `O=C(O)c1ccc(/C=N/NC(=O)c2ccc(CN3c4cccc5cccc(c45)S3(=O)=O)cc2)cc1` it was > 200 µM (inactive); in that of `C=CCc1cccc2cc(C(=O)Nc3ccc(CC(=O)O)cc3)c(=O)oc12`, > 200 µM (inactive); in that of `Cc1ccc2c(c1)N(CC(=O)NCCc1ccc(Cl)cc1)C(=O)c1cccnc1O2`, > 200 µM (inactive).
For the compound `COc1ccc(CCNC(=O)CCC(=O)N2CCOc3ccc(C)cc32)cc1OC`, the IC50 is > 200 µM (inactive).
In the case of `CC1CCN(S(=O)(=O)c2ccc3c(c2)c(=O)c(C(=O)NCc2ccccc2Cl)cn3C)CC1` it was > 200 µM (inactive); in that of `Cc1ccn2c(C(=O)CSc3ccc(Cl)cc3Cl)c(C)nc2c1`, > 200 µM (inactive).
Consider `C[N+]1(CCNC(=O)/C=N/O)CCCCC1`, for which the IC50 is > 200 µM (inactive).
In the case of `CCN(CC)CCOC(=O)c1ccc(N/C=C(/C#N)c2nc(-c3cc4ccccc4oc3=O)cs2)cc1` it was > 200 µM (inactive).
In the case of `CC(C)(C)c1ccc(C(CC(=O)O)NC(=O)Cc2ccc(F)cc2)cc1` (stereo unspecified), the IC50 was > 200 µM (inactive).
On to `CN(Cc1c(C(=O)N/N=C/c2ccc(F)cc2)nnn1-c1nonc1N)C1CCCCC1`, for which the IC50 is > 200 µM (inactive).
Regarding `CS(=O)(=O)N1CCN(c2ccc([N+](=O)[O-])c(SCc3ccco3)c2)CC1`, the IC50 was > 200 µM (inactive).
As to `CCCCn1c(NS(=O)(=O)c2ccccc2)c(S(=O)(=O)c2ccc(C)cc2)c2nc3ccccc3nc21`, the IC50 is > 200 µM (inactive).
Consider `O=C1C=C(NCc2ccccc2)c2ccccc2C1=O`, for which the IC50 is > 200 µM (inactive).
In the case of `O=C(N/N=C/c1ccc(OC(=O)c2cccs2)cc1)c1cccc(F)c1` it was > 200 µM (inactive).
The same measure for `Cc1ccc(OCCCN2CCOCC2)cc1`: > 200 µM (inactive).
The same measure for `CN(C)CCOC(=O)CCc1ccccc1`: > 200 µM (inactive); for `COC(=O)c1c(C(=O)OC)c2cccc3cc(-c4ccccc4)c4ccc1c4n32`: “inactive”; for `O=C(Nc1ccc(Br)cc1)c1ccc(N2C(=O)C3CC=CCC3C2=O)cc1` (stereo unspecified): > 200 µM (inactive).
For the compound `Cc1ccc(C(=O)COc2ccccc2C(=O)Nc2ccccc2)cc1`, the IC50 was > 200 µM (inactive).
As to `CSc1ccccc1C(=O)NC(C)c1ccc(-n2ccnc2)cc1` (stereo unspecified), the IC50 is > 200 µM (inactive).
As for `COc1cccc2cc(C(=O)N3CCc4ccccc43)c(=O)oc12`, the IC50 is > 200 µM (inactive).
Turning to `O=C(Nc1ccc(Oc2ccsc2C(=O)O)cc1)c1ccccc1F`, the IC50 was > 200 µM (inactive).
In the case of `CCOc1ccccc1CNc1ccc(O)cc1` it was > 200 µM (inactive); in that of `CC1CCCCC1NC(=O)CCS(=O)(=O)c1ccc2c(c1)NC(=O)CO2` (stereo unspecified), > 200 µM (inactive).
For the compound `COC(=O)C1C=C2c3cccc4[nH]cc(c34)CC2N(C)C1` (stereo unspecified), the IC50 was 6.23 µM.
The same measure for `CCN(CC)c1ccc(C=N/C(C#N)=C(\N)C#N)cc1`: > 200 µM (inactive); for `CCC1=Nc2cc(C(=O)O)ccc2Sc2ccccc21`: > 200 µM (inactive).
The same measure for `Cc1ccc(S(=O)(=O)NN=C2C3CC4CC(C3)CC2C4)cc1[N+](=O)[O-]`: > 200 µM (inactive).
On to `Oc1ccc(N=Cc2sc3ccccc3c2Cl)cc1`, for which the IC50 was > 200 µM (inactive).
For `CCC(C)[C@H](NC(=O)N1CCn2c1nc1ccccc12)C(=O)NCCc1ccc(OC)c(OC)c1` (stereo partly specified), the IC50 is > 200 µM (inactive).
Turning to `O=C1CCCC(O)=C1N=Nc1ccc(C(=O)O)cc1`, the IC50 was > 200 µM (inactive).
Turning to `Fc1ccc(/C=N/NC(=S)Nc2cccnc2)cc1F`, the IC50 is > 200 µM (inactive).
Consider `Cc1ccccc1NC(=O)CN1C(=O)N/C(=C\c2ccccc2OCc2ccc(C(=O)O)cc2)C1=O`, for which the IC50 was > 200 µM (inactive).
In the case of `O=S(=O)(Nc1cc2nc3ccccc3nc2n1Cc1ccccc1)c1ccc(Cl)cc1` it was > 200 µM (inactive); in that of `Cc1ccc(-n2cccn2)c([C@@H]2C[C@H]3CN(C)C(=O)[C@]34CCCN24)c1`, > 200 µM (inactive).
With `CN1C(=O)NC(c2ccccc2[N+](=O)[O-])C2=C1CCCC2=O` (stereo unspecified), the concentration for half-maximal inhibition (IC50) was 5.41 µM.
Consider `Cc1cc(C)n(-c2ccc(Cl)c(C(=O)Nc3cc(C(F)(F)F)ccc3Cl)n2)n1`, for which the IC50 is > 200 µM (inactive).
The same measure for `CCNc1ccc(C(=O)O)cc1N`: “inactive”; for `O=C(Nc1cccc(Oc2ccc(C(=O)O)c(C(=O)O)c2)c1)c1ccc(-c2ccccc2)cc1`: > 200 µM (inactive); for `CC[n+]1c(/C=C/N(C)c2ccccc2)sc2ccc(Cl)cc21`: > 200 µM (inactive).
Regarding `O=C(Nc1ccc(Cl)cc1)c1ccc(S(=O)(=O)N2CCOCC2)cc1`, the IC50 is > 200 µM (inactive).
The same measure for `O=C(CCN1CCN(Cc2ccccc2)CC1)Nc1cccc(Cl)c1`: > 200 µM (inactive); for `O=S(=O)(Nc1nc2ccccc2nc1Nc1ccc(N2CCOCC2)cc1)c1cc(Cl)ccc1Cl`: > 200 µM (inactive); for `CCC(C)N1C(=O)/C(=C/c2c(NCCCOC(C)C)nc3c(C)cccn3c2=O)SC1=S` (stereo unspecified): 5.66 µM.
Regarding `O=C(O)c1cc(Cl)c(Cl)cc1C(=O)Nc1cccc2cccnc12`, the IC50 was > 200 µM (inactive).
On to `COCCCNc1c2c3c(cccc3[nH]c1=O)C(=O)c1ccccc1-2`, for which the IC50 was > 200 µM (inactive).
The same measure for `Cc1c(Cc2ccccc2)c(=O)oc2c(C)c(OCC(=O)N[C@@H](Cc3ccccc3)C(=O)O)ccc12`: > 200 µM (inactive); for `O=C(CC1Nc2cccc3cccc(c23)NC1=O)Nc1ccccc1` (stereo unspecified): > 200 µM (inactive).
